The series in a line: Stability of CV-8972 in aqueous solution at different concentrations and pH. The class given is physicochemical. Here is the method: The stability of CV-8972 was analyzed. Aqueous samples containing CV-8972 at different concentrations and pH were incubated for various periods and analyzed.
Form A of CV-8972 were analyzed for stability in aqueous solution. Aqueous samples containing CV-8972 at different concentrations and pH were incubated for various periods and analyzed.

Take `COc1ccc(CN2CCN(CCOC(=O)c3cccnc3)CC2)c(OC)c1OC.Cl.O` [276-MBA-172]: the “Retention Time 5.6 (CV-8972 purity)” value reads like this: (2 mg/mL pH 6 (Form A), 1 hrs, PH 6.1) 97.22; (2 mg/mL pH 6 (Form A), 4 hrs, PH 6.1) 97.01; (2 mg/mL pH 6 (Form A), 6 hrs, PH 6.1) 96.51; (2 mg/mL pH 7 (Form A), 1 hrs, PH 6.8) 95.06; (2 mg/mL pH 7 (Form A), 4 hrs, PH 6.7) 93.7; (2 mg/mL pH 7 (Form A), 6 hrs, PH 6.7) 92.12. Besides, the “Retention Time 5.6 (CV-8972 purity)” value (2 mg/mL pH 7 (Form A), 22 hrs, PH 6.8) is given as 91.07; the “Retention Time 5.6 (CV-8972 purity)” value (10 mg/mL pH 6 (Form A), 1 hrs, PH 6.8) stood at 93.43; the “Retention Time 5.6 (CV-8972 purity)” value (10 mg/mL pH 6 (Form A), 4 hrs, PH 6.8) was determined as 91.82; the “Retention Time 5.6 (CV-8972 purity)” value (10 mg/mL pH 6 (Form A), 6 hrs, PH 6.7) turned out to be 91.8; the “Retention Time 5.6 (CV-8972 purity)” value (10 mg/mL pH 6 (Form A), 22 hrs, PH 6.7) was 89.66; the “Retention Time 5.6 (CV-8972 purity)” value (10 mg/mL pH 7 (Form A), 1 hrs, PH 7.2) came out at 89.05. Moreover, the “Retention Time 5.6 (CV-8972 purity)” value was found to be 86.8 (10 mg/mL pH 7 (Form A), 4 hrs, PH 7.1) and 84.79 (10 mg/mL pH 7 (Form A), 6 hrs, PH 7.1).

`COc1ccc(CN2CCN(CCOC(=O)c3cccnc3)CC2)c(OC)c1OC.Cl.O` [289-MBA-15-A]: the “Retention Time 5.6 (CV-8972 purity)” value amounted to 95.1 (2 mg/mL pH 6 (Form B), 1 hrs, PH 6.9); 92.45 (2 mg/mL pH 6 (Form B), 4 hrs, PH 6.8); 90.65 (2 mg/mL pH 6 (Form B), 6 hrs, PH 6.8); 89.15 (2 mg/mL pH 6 (Form B), 22 hrs, PH 6.7); 95.46 (2 mg/mL pH 7 (Form B), 1 hrs, PH 6.6); 93.92 (2 mg/mL pH 7 (Form B), 4 hrs, PH 6.5). The “Retention Time 5.6 (CV-8972 purity)” value (10 mg/mL pH 6 (Form B), 1 hrs, PH 6.1) amounted to 94.81; the “Retention Time 5.6 (CV-8972 purity)” value (10 mg/mL pH 6 (Form B), 4 hrs, PH 6) is 94.69; the “Retention Time 5.6 (CV-8972 purity)” value (10 mg/mL pH 6 (Form B), 6 hrs, PH 5.9) turned out to be 94.39; the “Retention Time 5.6 (CV-8972 purity)” value (10 mg/mL pH 6 (Form B), 22 hrs, PH 5.9) was found to be 93.93; the “Retention Time 5.6 (CV-8972 purity)” value (10 mg/mL pH 7 (Form B), 1 hrs, PH 7.4) is reported as 86.18; the “Retention Time 5.6 (CV-8972 purity)” value (10 mg/mL pH 7 (Form B), 4 hrs, PH 7.4) is reported as 82.36. The “Retention Time 5.6 (CV-8972 purity)” value (10 mg/mL pH 7 (Form B), 6 hrs, PH 7.3) is recorded as 79.37.

The values are drawn from patent US10918728B2, “Compositions and methods for increasing efficiency of cardiac metabolism” (IMBRIA PHARMACEUTICALS, INC., priority 2017, dated 2021).
